The text below walks through data of patent publication US7556806B2, “Carbohydrate-based synthetic vaccines for HIV” (University of Maryland Biotechnology Institute, priority 2002, dated 2009).

This assay relates to MAb 2G12 binding to HIV-1IIIB gp120. Put plainly: Competitive ELISA: inhibition of 2G12 binding to immobilized gp120 by carbohydrate antigens. Also noted: species or system human. The note with it: for Relative Affinity, Molar basis / Relative Affinity, Valency-corrected: Table 1; for Relative Affinity, Molar basis: from IC50, relative to Man9GlcNAc2Asn = 1.0; for Relative Affinity, Valency-corrected: from IC50, relative to Man9GlcNAc2Asn = 1.0, per oligosaccharide subunit; for affinity for 2G12 binding, Man9GlcNAc compared with Man9GlcNAc2Asn: result in words. The method, then:
Competitive ELISAs were performed to determine the relative inhibition potency of various carbohydrate antigens against the binding of 2G12 to gp120. Microtiter plates were coated with human cell line 293-expressed HIV-1IIIB gp120 (100 ng/ml) overnight at 4° C. After washing, non-specific binding was blocked with 5% BSA in PBS for 1 h at room temperature. The plates were then washed three times with 0.1% Tween-20/PBS. Serial dilutions (1:2) of various carbohydrate antigens were mixed with an equal volume of MAb 2G12 (fixed final concentration of 5 ng/ml) and added to the plates. The plates were incubated for 1 h at 37° C. and washed with washing buffer. To the plates was added a 100-μl solution of 1:3000 diluted horseradish peroxidase-conjugated goat anti-human IgG in 0.5% BSA/PBS. After incubation for 1 h at 37° C., the plates were washed again and a 100-μl solution of 3,3′,5,5′-tetramethyl benzidine (TMB) was added. Color was allowed to develop for 5 min, and the color reaction was quenched through adding a 100-μl solution of 0.5 M H2SO4 to each well. The optical density was then measured at 450 nm.
The binding affinity of the high-mannose oligosaccharides was examined by competitive inhibition of 2G12 binding to immobilized gp120, as shown in FIG. 14.
The synthetic Man9-clusters were examined for competitive inhibition of 2G12 binding to immobilized gp120 (FIG. 16).
A general note: In an ELISA, binding on a coated surface is turned into a signal by an enzyme label.

Consider `CC(=O)N[C@H]1C(O)O[C@H](CO)[C@@H](O[C@@H]2O[C@H](CO[C@H]3O[C@H](CO[C@H]4O[C@H](CO)[C@@H](O)[C@H](O)[C@@H]4O)[C@@H](O)[C@H](O[C@H]4O[C@H](CO)[C@@H](O)[C@H](O)[C@@H]4O)[C@@H]3O)[C@@H](O)[C@H](O[C@H]3O[C@H](CO)[C@@H](O)[C@H](O)[C@@H]3O)[C@@H]2O)[C@@H]1O` (stereo partly drawn) [Man5GlcNAc], for which the “Relative Affinity, Molar basis” value was 0.004 and the “Relative Affinity, Valency-corrected” value was 0.004.
Turning to `CC(=O)N[C@@H]1[C@@H](O)[C@H](O[C@@H]2O[C@H](CO)[C@@H](O[C@@H]3O[C@H](CO[C@H]4O[C@H](CO[C@H]5O[C@H](CO)[C@@H](O)[C@H](O)[C@@H]5O[C@H]5O[C@H](CO)[C@@H](O)[C@H](O)[C@@H]5O)[C@@H](O)[C@H](O[C@H]5O[C@H](CO)[C@@H](O)[C@H](O)[C@@H]5O[C@H]5O[C@H](CO)[C@@H](O)[C@H](O)[C@@H]5O)[C@@H]4O)[C@@H](O)[C@H](O[C@H]4O[C@H](CO)[C@@H](O)[C@H](O)[C@@H]4O[C@H]4O[C@H](CO)[C@@H](O)[C@H](O)[C@@H]4O[C@H]4O[C@H](CO)[C@@H](O)[C@H](O)[C@@H]4O)[C@@H]3O)[C@H](O)[C@H]2NC(C)=O)[C@@H](CO)O[C@H]1NC(=O)C[C@H](N)C(=O)O` [Man9GlcNAc2Asn], the “Relative Affinity, Molar basis” value was determined as 1.0; the “Relative Affinity, Valency-corrected” value worked out at 1.0; the “affinity for 2G12 binding, Man9GlcNAc compared with Man9GlcNAc2Asn” value is reported as “essentially the same affinity”.
Consider `CC(=O)N[C@H]1C(O)O[C@H](CO)[C@@H](O[C@@H]2O[C@H](CO[C@H]3O[C@H](CO[C@H]4O[C@H](CO)[C@@H](O)[C@H](O)[C@@H]4O[C@H]4O[C@H](CO)[C@@H](O)[C@H](O)[C@@H]4O)[C@@H](O)[C@H](O[C@H]4O[C@H](CO)[C@@H](O)[C@H](O)[C@@H]4O[C@H]4O[C@H](CO)[C@@H](O)[C@H](O)[C@@H]4O)[C@@H]3O)[C@@H](O)[C@H](O[C@H]3O[C@H](CO)[C@@H](O)[C@H](O)[C@@H]3O[C@H]3O[C@H](CO)[C@@H](O)[C@H](O)[C@@H]3O[C@H]3O[C@H](CO)[C@@H](O)[C@H](O)[C@@H]3O)[C@@H]2O)[C@@H]1O` (stereo partly drawn) [Man9GlcNAc], for which the “Relative Affinity, Molar basis” value was 0.84; the “Relative Affinity, Valency-corrected” value was determined as 0.84; the “affinity for 2G12 binding, Man9GlcNAc compared with Man9GlcNAc2Asn” value is “essentially the same affinity”. In addition, the “fold more effective in inhibition of 2G12 binding than Man5GlcNAc” value (on a molar basis, versus Man5GlcNAc) was 244 fold. The “fold more effective in inhibition of 2G12 binding than Man6GlcNAc” value (on a molar basis, versus Man6GlcNAc) turned out to be 85 fold.
As for Man6GlcNAc, the “Relative Affinity, Molar basis” value is 0.012 and the “Relative Affinity, Valency-corrected” value came out at 0.012.
